What all share (format): biochemical
One assay addresses CDK2/CCNE1 (Homo sapiens, UniProt P24941). Nature of the assay: CDK2 homogeneous time-resolved fluorescence (HTRF) kinase assay. The settings on record: CDK2/CCNE. In short, it runs like this:
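IC50 derived from 11-point, half-log dilutions (usually top 10 μM) of compound, 1% DMSO. Kinase (3 nM CDK2/CCNE1) was preincubated with compound 20 min, then phosphorylated 50 nM ULight-4E-BP1 peptide at 1 mM ATP for 60 min, 23 °C. Europium-antibody TR-FRET read after EDTA stop.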
(In general: In TR-FRET formats the signal depends on donor and acceptor labels being close together.)

For a further assay, the target named is CDK1/CCNB1 (Homo sapiens, UniProt P06493). The assay can be described thus: CDK1 homogeneous time-resolved fluorescence (HTRF) kinase assay. The settings on record: CDK1/CCNB; x = IC50 >250 nM; read-out: CDK1/CCNB IC50 (>250 nM column). In short, it runs like this: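 Kinase activity is measured as Lance signal (665 nm, or 665/615 nm ratio) from europium-labelled anti-phospho-Thr37/46 antibody binding ULight-4E-BP1 peptide. Reactions contain 0.5 nM enzyme, 1 mM ATP, 1% DMSO and run 60 min at 23 °C before EDTA quench.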
Sequence of CDK1/CCNB1 (P06493 whole entry): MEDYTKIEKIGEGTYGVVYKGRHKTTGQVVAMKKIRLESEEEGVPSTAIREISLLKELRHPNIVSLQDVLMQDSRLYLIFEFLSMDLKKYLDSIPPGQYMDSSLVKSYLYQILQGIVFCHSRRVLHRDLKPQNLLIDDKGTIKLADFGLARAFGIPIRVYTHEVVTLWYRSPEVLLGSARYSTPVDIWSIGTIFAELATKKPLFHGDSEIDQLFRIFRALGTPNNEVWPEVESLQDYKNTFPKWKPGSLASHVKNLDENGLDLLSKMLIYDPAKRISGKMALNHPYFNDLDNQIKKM
Sequence of CDK1/CCNB1 (P14635 whole entry partner): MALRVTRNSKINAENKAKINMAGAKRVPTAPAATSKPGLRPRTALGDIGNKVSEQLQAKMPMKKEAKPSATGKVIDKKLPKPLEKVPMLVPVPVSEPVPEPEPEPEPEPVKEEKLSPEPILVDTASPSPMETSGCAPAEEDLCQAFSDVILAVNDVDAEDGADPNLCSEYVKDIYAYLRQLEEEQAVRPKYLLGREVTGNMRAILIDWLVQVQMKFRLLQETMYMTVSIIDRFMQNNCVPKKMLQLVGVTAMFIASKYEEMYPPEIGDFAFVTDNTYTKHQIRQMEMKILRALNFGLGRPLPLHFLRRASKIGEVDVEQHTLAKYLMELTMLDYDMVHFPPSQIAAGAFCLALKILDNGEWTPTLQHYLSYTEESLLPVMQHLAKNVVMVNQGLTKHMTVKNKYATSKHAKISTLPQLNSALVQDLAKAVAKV

The target of a further assay is CDK4/CCND3 (Homo sapiens, UniProt P11802). The assay can be described thus: CDK4 homogeneous time-resolved fluorescence (HTRF) kinase assay. Conditions: CDK4/CCND. In a few lines:
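TR-FRET read (665 nm, or 665/615 ratio) of 4E-BP1 Thr37/46 phosphorylation by 1.5 nM CDK4/CCND3 at 1 mM ATP, 50 nM ULight peptide, 1% DMSO. Reaction ran 60 min at 23 °C after 20 min compound–enzyme preincubation. IC50 from 11-point half-log dilutions, top 10 μM.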

Another assay addresses CDK6/CCND1 (Homo sapiens, UniProt Q00534). Nature of the assay: CDK6 homogeneous time-resolved fluorescence (HTRF) kinase assay. The settings on record: CDK6/CCND. In a few lines: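 Assay conditions: HEPES buffer containing 10 mM MgCl2, 1 mM EGTA, 2 mM DTT, 0.01% Tween 20; 1 nM CDK6/CCND1, 50 nM peptide substrate, 1 mM ATP. Detection after 60 min reaction used 2 nM europium antibody with 340 nm excitation. Potency fitted from half-log series, 11 points.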

[1] abbreviates: x = IC50 25-250 nM, read-out: CDK2/CCNE IC50 (25-250 nM).
Where [2] appears, read: x = IC50 >250 nM, read-out: CDK4/CCND IC50 (>250 nM column).
Where [3] appears, read: x = IC50 >250 nM, read-out: CDK6/CCND IC50 (>250 nM column).
Setting [4] is: x = IC50 >250 nM, read-out: CDK2/CCNE IC50 (>250 nM column).
Setting [5] is: x = IC50 <25 nM, read-out: CDK2/CCNE IC50 (<25 nM).
The mark [6] stands for this setting: x = IC50 25-250 nM, read-out: CDK6/CCND IC50 (25-250 nM).

Like-named read-outs stand apart in the source and are kept apart here.

Sequence of CDK6/CCND1 (Q00534 whole entry): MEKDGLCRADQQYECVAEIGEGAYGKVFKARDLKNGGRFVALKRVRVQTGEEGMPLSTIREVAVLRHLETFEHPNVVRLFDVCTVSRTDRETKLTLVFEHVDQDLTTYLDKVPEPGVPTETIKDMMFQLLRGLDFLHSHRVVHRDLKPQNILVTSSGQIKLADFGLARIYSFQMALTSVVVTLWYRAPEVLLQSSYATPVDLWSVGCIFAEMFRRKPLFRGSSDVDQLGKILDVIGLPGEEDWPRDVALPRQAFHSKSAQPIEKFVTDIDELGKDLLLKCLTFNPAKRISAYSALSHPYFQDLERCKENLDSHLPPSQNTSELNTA
Sequence of CDK6/CCND1 (P24385 whole entry partner): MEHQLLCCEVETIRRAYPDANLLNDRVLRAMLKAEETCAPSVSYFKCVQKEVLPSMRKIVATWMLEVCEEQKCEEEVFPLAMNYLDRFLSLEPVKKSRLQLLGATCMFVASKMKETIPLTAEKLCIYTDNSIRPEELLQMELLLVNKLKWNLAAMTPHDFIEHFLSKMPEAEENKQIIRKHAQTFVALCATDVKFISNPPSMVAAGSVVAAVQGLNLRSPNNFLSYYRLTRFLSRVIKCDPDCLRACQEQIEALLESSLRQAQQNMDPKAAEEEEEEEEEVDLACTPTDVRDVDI
Sequence of CDK4/CCND3 (P11802 whole entry): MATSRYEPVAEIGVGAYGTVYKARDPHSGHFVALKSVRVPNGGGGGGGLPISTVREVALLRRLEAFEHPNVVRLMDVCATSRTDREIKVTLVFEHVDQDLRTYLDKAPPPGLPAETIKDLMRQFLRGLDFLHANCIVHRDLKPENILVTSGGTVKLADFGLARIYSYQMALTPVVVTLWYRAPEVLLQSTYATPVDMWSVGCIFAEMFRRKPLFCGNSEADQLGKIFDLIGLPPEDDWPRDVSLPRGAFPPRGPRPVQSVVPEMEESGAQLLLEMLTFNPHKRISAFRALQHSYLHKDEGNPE
Sequence of CDK4/CCND3 (P30281 whole entry partner): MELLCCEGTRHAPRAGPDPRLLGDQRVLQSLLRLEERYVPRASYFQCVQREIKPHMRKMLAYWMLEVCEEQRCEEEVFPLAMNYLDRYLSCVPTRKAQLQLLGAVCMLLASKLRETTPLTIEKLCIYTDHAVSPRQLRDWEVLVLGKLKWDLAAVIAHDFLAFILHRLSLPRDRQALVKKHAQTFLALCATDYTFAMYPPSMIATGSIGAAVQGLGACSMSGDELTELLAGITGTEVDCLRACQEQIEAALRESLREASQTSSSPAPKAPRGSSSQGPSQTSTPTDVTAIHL

In the case of `CS(=O)(=O)c1ccc(Nc2cc3c(C#Cc4cccnc4O)nccc3cn2)cc1` [Ex 583, 3-((7-((4-(methylsulfonyl)phenyl)amino)-2,6-naphthyridin-1-yl)ethynyl)pyridin-2(1H)-one], the IC50 is 25 to 250 nM on CDK2/CCNE1 (setting [1]), more than 250 nM at CDK1/CCNB1, more than 250 nM at CDK4/CCND3 (setting [2]) and more than 250 nM at CDK6/CCND1 (setting [3]).

For `CS(=O)(=O)c1ccc(Nc2cc3c(C#Cc4ccc(N)nc4)nccc3cn2)cc1` [Ex 584, 5-((6-aminopyridin-3-yl)ethynyl)-N-(4-(methylsulfonyl)phenyl)-2,6-naphthyridin-3-amine], the IC50 was 25 to 250 nM at CDK2/CCNE1 (setting [1]), more than 250 nM at CDK1/CCNB1, more than 250 nM at CDK4/CCND3 (setting [2]) and more than 250 nM at CDK6/CCND1 (setting [3]).

On to `COc1cncc(C#Cc2nccc3cnc(Nc4ccc(S(C)(=O)=O)cc4)cc23)n1` [Ex 585, 5-((6-methoxypyrazin-2-yl)ethynyl)-N-(4-(methylsulfonyl)phenyl)-2,6-naphthyridin-3-amine], for which the IC50 was 25 to 250 nM at CDK2/CCNE1 (setting [1]), more than 250 nM on CDK1/CCNB1, more than 250 nM on CDK4/CCND3 (setting [2]) and more than 250 nM on CDK6/CCND1 (setting [3]).

Consider `COc1cc(C#Cc2nccc3cnc(Nc4ccc(S(C)(=O)=O)cc4)cc23)c(F)cn1` [Ex 586, 5-((5-fluoro-2-methoxypyridin-4-yl)ethynyl)-N-(4-(methylsulfonyl)phenyl)-2,6-naphthyridin-3-amine], for which the IC50 at CDK2/CCNE1 (setting [1]) is 25 to 250 nM; on CDK1/CCNB1, more than 250 nM; on CDK4/CCND3 (setting [2]), more than 250 nM; on CDK6/CCND1 (setting [3]), more than 250 nM.

Regarding `COC(=O)c1nc(C#Cc2nccc3cnc(Nc4ccc(S(C)(=O)=O)cc4)cc23)cnc1N` [Ex 588, methyl 3-amino-6-((7-((4-(methylsulfonyl)phenyl)amino)-2,6-naphthyridin-1-yl)ethynyl)pyrazine-2-carboxylate], the IC50 at CDK2/CCNE1 (setting [4]), at CDK1/CCNB1, at CDK4/CCND3 (setting [2]) and at CDK6/CCND1 (setting [3]) was more than 250 nM in each case.

In the case of `Cc1ccc(C#Cc2nccc3cnc(Nc4ccc(S(C)(=O)=O)cc4)cc23)cc1C#N` [Ex 589, 2-methyl-5-((7-((4-(methylsulfonyl)phenyl)amino)-2,6-naphthyridin-1-yl)ethynyl)benzonitrile], the IC50 at CDK2/CCNE1 (setting [4]), at CDK1/CCNB1, on CDK4/CCND3 (setting [2]) and at CDK6/CCND1 (setting [3]) was more than 250 nM throughout.

Regarding `CC(C)(O)c1ccc(C#Cc2nccc3cnc(Nc4ccc(S(C)(=O)=O)cc4)cc23)cc1` [Ex 596, 2-(4-((7-((4-(methylsulfonyl)phenyl)amino)-2,6-naphthyridin-1-yl)ethynyl)phenyl)propan-2-ol], the IC50 was 25 to 250 nM on CDK2/CCNE1 (setting [1]), more than 250 nM on CDK1/CCNB1, more than 250 nM at CDK4/CCND3 (setting [2]) and more than 250 nM on CDK6/CCND1 (setting [3]).

As for `Cc1cc2[nH]ncc2cc1-c1nccc2cnc(Nc3ccc(S(C)(=O)=O)cc3)cc12` [Ex 597, 5-(6-methyl-1H-indazol-5-yl)-N-(4-(methylsulfonyl)phenyl)-2,6-naphthyridin-3-amine], the IC50 is 25 to 250 nM at CDK2/CCNE1 (setting [1]), more than 250 nM on CDK1/CCNB1, more than 250 nM at CDK4/CCND3 (setting [2]) and more than 250 nM at CDK6/CCND1 (setting [3]).

For `CS(=O)(=O)c1ccc(Nc2cc3c(C#Cc4cccnc4N)nccc3cn2)cc1` [Ex 598, 5-((2-aminopyridin-3-yl)ethynyl)-N-(4-(methylsulfonyl)phenyl)-2,6-naphthyridin-3-amine], the IC50 on CDK2/CCNE1 (setting [5]) is less than 25 nM; on CDK1/CCNB1, more than 250 nM; at CDK4/CCND3 (setting [2]), more than 250 nM; on CDK6/CCND1 (setting [3]) it was more than 250 nM.

For the compound `CS(=O)(=O)c1ccc(Nc2cc3c(-c4ccc5c(c4)C(=O)C(=O)N5)nccc3cn2)cc1` [Ex 600, 5-(7-((4-(methylsulfonyl)phenyl)amino)-2,6-naphthyridin-1-yl)indoline-2,3-dione], the IC50 at CDK2/CCNE1 (setting [5]) was less than 25 nM; on CDK1/CCNB1 it was more than 250 nM; at CDK4/CCND3 (setting [2]), more than 250 nM; at CDK6/CCND1 (setting [6]), 25 to 250 nM.

`CS(=O)(=O)c1ccc(Nc2cc3c(-c4ccc5[nH]ncc5c4)nccc3cn2)cc1` [Ex 601, 5-(1H-indazol-5-yl)-N-(4-(methylsulfonyl)phenyl)-2,6-naphthyridin-3-amine]: the IC50 was 25 to 250 nM on CDK2/CCNE1 (setting [1]), more than 250 nM on CDK1/CCNB1, more than 250 nM at CDK4/CCND3 (setting [2]) and more than 250 nM at CDK6/CCND1 (setting [3]).

As for `CS(=O)(=O)c1ccc(Nc2cc3c(C#Cc4ccc(O)cc4F)nccc3cn2)cc1` [Ex 602, 3-fluoro-4-((7-((4-(methylsulfonyl)phenyl)amino)-2,6-naphthyridin-1-yl)ethynyl)phenol], the IC50 was less than 25 nM at CDK2/CCNE1 (setting [5]), more than 250 nM at CDK1/CCNB1, more than 250 nM at CDK4/CCND3 (setting [2]) and more than 250 nM at CDK6/CCND1 (setting [3]).

With `CS(=O)(=O)c1ccc(Nc2cc3c(C#Cc4ccc5ncoc5c4)nccc3cn2)cc1` [Ex 604, 5-(benzo[d]oxazol-6-ylethynyl)-N-(4-(methylsulfonyl)phenyl)-2,6-naphthyridin-3-amine], the IC50 at CDK2/CCNE1 (setting [1]) was 25 to 250 nM; on CDK1/CCNB1, more than 250 nM; at CDK4/CCND3 (setting [2]) it was more than 250 nM; on CDK6/CCND1 (setting [3]) it was more than 250 nM.

`COC(=O)c1n[nH]c2cc(-c3nccc4cnc(Nc5ccc(S(C)(=O)=O)cc5)cc34)ccc12` [Ex 605, methyl 6-(7-((4-(methylsulfonyl)phenyl)amino)-2,6-naphthyridin-1-yl)-1H-indazole-3-carboxylate]: the IC50 on CDK2/CCNE1 (setting [5]) was less than 25 nM; on CDK1/CCNB1 it was more than 250 nM; on CDK4/CCND3 (setting [2]), more than 250 nM; on CDK6/CCND1 (setting [6]), 25 to 250 nM.

Regarding `CS(=O)(=O)c1ccc(Nc2cc3c(C#CC4CCN(CC(=O)O)CC4)nccc3cn2)cc1` [Ex 609, 2-(4-((7-((4-(methylsulfonyl)phenyl)amino)-2,6-naphthyridin-1-yl)ethynyl)piperidin-1-yl)acetic acid], the IC50 at CDK2/CCNE1 (setting [5]) was less than 25 nM; on CDK1/CCNB1, more than 250 nM; at CDK4/CCND3 (setting [2]), more than 250 nM; at CDK6/CCND1 (setting [3]), more than 250 nM.

Turning to `Cc1c(-c2nccc3cnc(Nc4ccc(S(C)(=O)=O)cc4)cc23)ccc2c1cnn2C(C)(C)C(N)=O` [Ex 610, 2-methyl-2-(4-methyl-5-(7-((4-(methylsulfonyl)phenyl)amino)-2,6-naphthyridin-1-yl)-1H-indazol-1-yl)propanamide], the IC50 is 25 to 250 nM at CDK2/CCNE1 (setting [1]), more than 250 nM on CDK1/CCNB1, more than 250 nM at CDK4/CCND3 (setting [2]) and more than 250 nM on CDK6/CCND1 (setting [3]).

For `CS(=O)(=O)c1ccc(Nc2cc3c(C#Cc4cncc5[nH]ncc45)nccc3cn2)cc1` [Ex 611, 5-((1H-pyrazolo[3,4-c]pyridin-4-yl)ethynyl)-N-(4-(methylsulfonyl)phenyl)-2,6-naphthyridin-3-amine], the IC50 on CDK2/CCNE1 (setting [1]) was 25 to 250 nM; at CDK1/CCNB1 it was more than 250 nM; at CDK4/CCND3 (setting [2]), more than 250 nM; on CDK6/CCND1 (setting [3]), more than 250 nM.

As for `CS(=O)(=O)c1ccc(Nc2cc3c(C#Cc4cc(Cl)n[nH]c4=O)nccc3cn2)cc1` [Ex 612, 6-chloro-4-((7-((4-(methylsulfonyl)phenyl)amino)-2,6-naphthyridin-1-yl)ethynyl)pyridazin-3(2H)-one], the IC50 is 25 to 250 nM at CDK2/CCNE1 (setting [1]), more than 250 nM at CDK1/CCNB1, more than 250 nM at CDK4/CCND3 (setting [2]) and more than 250 nM at CDK6/CCND1 (setting [3]).

In the case of `CS(=O)(=O)c1ccc(Nc2cc3c(C#Cc4cnc(N)nn4)nccc3cn2)cc1` [Ex 613, 5-((3-amino-1,2,4-triazin-6-yl)ethynyl)-N-(4-(methylsulfonyl)phenyl)-2,6-naphthyridin-3-amine], the IC50 was 25 to 250 nM on CDK2/CCNE1 (setting [1]), more than 250 nM on CDK1/CCNB1, more than 250 nM at CDK4/CCND3 (setting [2]) and more than 250 nM at CDK6/CCND1 (setting [3]).

As for `Cc1c(-c2nccc3cnc(Nc4ccc(S(C)(=O)=O)c(O)c4)cc23)ccc2c1cnn2CCO` [Ex 616, 5-((5-(1-(2-hydroxyethyl)-4-methyl-1H-indazol-5-yl)-2,6-naphthyridin-3-yl)amino)-2-(methylsulfonyl)phenol], the IC50 is less than 25 nM at CDK2/CCNE1 (setting [5]); more than 250 nM at CDK1/CCNB1; 25 to 250 nM on CDK4/CCND3 (x = IC50 25-250 nM, read-out: CDK4/CCND IC50 (25-250 nM)); 25 to 250 nM on CDK6/CCND1 (setting [6]).

For the compound `COc1cc(Nc2cc3c(-c4ccc5c(cnn5CCO)c4C)nccc3cn2)ccc1S(C)(=O)=O` [Ex 617, 2-(5-(7-((3-methoxy-4-(methylsulfonyl)phenyl)amino)-2,6-naphthyridin-1-yl)-4-methyl-1H-indazol-1-yl)ethan-1-ol], the IC50 at CDK2/CCNE1 (setting [1]) was 25 to 250 nM; at CDK1/CCNB1 it was more than 250 nM; on CDK4/CCND3 (setting [2]) it was more than 250 nM; at CDK6/CCND1 (setting [3]), more than 250 nM.

Values taken from US20260325533A1, “CDK INHIBITOR COMPOUNDS” (ALEKSIA THERAPEUTICS, INC., priority 2023, published 2026).
